Experimental data reported in ChEMBL document CHEMBL1201862, “PubChem BioAssay data set” (2004).
Active and inactive are the calls of the source.

Key:
[1] = nonselective inhibitors of cellular cAMP signaling, dose response, counter-screen for MC4R biased antagonist project, cell-based, TR-FRET cAMP detection (AID 602305); type: functional;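 note: U2OS cells stimulated with forskolin near its EC80 as the cAMP inducer; potency is for inhibition of forskolin-stimulated cAMP signaling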
[2] = target: Neurotensin receptor type 1 (Homo sapiens, UniProt P30989); type: functional;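 note: Image-based confirmatory dose-response assay measuring agonist activity at NTR1; NTR1-expressing U2OS osteosarcoma cells imaged for beta-arrestin GFP spot formation; agonist potency where compounds increase beta-arrestin recruitment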
Chain of Neurotensin receptor type 1 (P30989 whole entry): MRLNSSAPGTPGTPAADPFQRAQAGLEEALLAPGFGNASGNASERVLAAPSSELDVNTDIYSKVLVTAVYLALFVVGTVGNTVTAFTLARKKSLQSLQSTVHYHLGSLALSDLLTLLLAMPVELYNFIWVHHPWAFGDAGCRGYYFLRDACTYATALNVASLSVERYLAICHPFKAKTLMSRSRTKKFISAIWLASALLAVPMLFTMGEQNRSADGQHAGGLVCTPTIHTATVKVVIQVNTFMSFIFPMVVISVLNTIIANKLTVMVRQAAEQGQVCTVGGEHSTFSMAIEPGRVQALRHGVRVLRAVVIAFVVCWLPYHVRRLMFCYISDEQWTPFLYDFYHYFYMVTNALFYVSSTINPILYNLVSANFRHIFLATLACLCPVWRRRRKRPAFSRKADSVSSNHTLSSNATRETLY

[3] = Luminescence Cell-Based Dose Retest to Confirm Inhibitors of Cancer Stem Cells. [Related pubchem assays (depositor defined):AID2717, AID2721]; type: functional; settings: Homo sapiens
[4] = target: T1, Microphthalmia-associated transcription factor (Homo sapiens, UniProt O75030); assay: TRPM1 promoter luciferase signal decrease, dose response, MITF inhibitor project, cell-based, SK-MEL-5, cherry-picked, set 3 (AID 493073); type: functional
T1 sequence (O75030 whole entry): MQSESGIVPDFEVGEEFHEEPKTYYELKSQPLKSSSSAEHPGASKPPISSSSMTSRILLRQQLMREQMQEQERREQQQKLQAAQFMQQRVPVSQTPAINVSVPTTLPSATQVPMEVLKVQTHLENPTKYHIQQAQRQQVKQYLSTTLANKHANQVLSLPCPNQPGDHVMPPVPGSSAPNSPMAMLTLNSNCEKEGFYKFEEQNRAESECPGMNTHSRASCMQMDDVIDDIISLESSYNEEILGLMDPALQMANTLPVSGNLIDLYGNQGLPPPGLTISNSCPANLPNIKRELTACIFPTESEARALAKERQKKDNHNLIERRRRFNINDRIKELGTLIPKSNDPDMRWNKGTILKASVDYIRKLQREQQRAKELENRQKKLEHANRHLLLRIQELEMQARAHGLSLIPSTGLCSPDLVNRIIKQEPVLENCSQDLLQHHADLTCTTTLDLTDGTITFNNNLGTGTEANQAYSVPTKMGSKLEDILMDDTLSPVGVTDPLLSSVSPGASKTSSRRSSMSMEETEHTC

[5] = target: Melanocortin receptor 4 (Homo sapiens, UniProt P32245); assay: MC4R antagonist potency on cAMP, dose response, cell-based, TR-FRET, biased antagonists (AID 602298); type: functional;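 note: antagonist potency against agonist-stimulated cAMP production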
Chain of Melanocortin receptor 4 (P32245 whole entry): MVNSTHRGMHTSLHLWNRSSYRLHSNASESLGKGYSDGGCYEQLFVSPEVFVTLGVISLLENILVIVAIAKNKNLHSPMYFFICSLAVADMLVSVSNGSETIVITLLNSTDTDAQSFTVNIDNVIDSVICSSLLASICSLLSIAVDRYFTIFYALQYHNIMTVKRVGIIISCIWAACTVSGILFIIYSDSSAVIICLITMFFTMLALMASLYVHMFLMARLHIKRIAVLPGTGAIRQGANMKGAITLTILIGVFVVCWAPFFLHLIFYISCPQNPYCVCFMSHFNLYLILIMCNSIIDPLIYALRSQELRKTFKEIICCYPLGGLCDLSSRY

[6] = target: Heat shock protein HSP 90-alpha (Homo sapiens, UniProt P07900); type: functional, organism-based
[7] = target: T2, Rac GTPase-activating protein 1 (Homo sapiens, UniProt Q9H0H5); assay: MgcRacGAP GTPase-activating activity inhibitors, confirmation, biochemical, ADP Hunter fluorescence, primary and confirmatory (AID 624330); type: functional
T2 sequence (Q9H0H5 whole entry): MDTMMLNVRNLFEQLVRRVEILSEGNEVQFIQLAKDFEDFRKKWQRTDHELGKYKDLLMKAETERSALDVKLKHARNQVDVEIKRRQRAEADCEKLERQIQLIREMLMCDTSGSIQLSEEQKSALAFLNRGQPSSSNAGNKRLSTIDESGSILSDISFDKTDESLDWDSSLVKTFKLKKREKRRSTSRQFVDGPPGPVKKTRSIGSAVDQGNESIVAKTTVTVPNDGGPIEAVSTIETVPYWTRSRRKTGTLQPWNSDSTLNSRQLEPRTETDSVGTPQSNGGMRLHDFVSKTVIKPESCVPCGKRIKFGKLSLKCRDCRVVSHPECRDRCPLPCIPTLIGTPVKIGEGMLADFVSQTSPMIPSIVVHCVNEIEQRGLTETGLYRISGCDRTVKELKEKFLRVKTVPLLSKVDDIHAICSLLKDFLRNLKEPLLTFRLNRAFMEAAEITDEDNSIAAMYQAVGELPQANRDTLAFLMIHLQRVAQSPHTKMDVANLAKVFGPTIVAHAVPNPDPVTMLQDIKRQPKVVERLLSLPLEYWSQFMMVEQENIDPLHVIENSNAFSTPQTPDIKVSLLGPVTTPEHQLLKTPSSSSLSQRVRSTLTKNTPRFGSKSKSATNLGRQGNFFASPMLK

[8] = target: T3, Short transient receptor potential channel 4 (Mus musculus, UniProt Q9QUQ5); assay: mouse TRPC4 channel inhibitors, dose response, cell-based, HEK293 TRPC4/mu-opioid, Fluo-4 calcium (AID 434942); type: functional;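 note: potency of inhibitors blocking the TRPC4 calcium response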
T3 sequence (Q9QUQ5 whole entry): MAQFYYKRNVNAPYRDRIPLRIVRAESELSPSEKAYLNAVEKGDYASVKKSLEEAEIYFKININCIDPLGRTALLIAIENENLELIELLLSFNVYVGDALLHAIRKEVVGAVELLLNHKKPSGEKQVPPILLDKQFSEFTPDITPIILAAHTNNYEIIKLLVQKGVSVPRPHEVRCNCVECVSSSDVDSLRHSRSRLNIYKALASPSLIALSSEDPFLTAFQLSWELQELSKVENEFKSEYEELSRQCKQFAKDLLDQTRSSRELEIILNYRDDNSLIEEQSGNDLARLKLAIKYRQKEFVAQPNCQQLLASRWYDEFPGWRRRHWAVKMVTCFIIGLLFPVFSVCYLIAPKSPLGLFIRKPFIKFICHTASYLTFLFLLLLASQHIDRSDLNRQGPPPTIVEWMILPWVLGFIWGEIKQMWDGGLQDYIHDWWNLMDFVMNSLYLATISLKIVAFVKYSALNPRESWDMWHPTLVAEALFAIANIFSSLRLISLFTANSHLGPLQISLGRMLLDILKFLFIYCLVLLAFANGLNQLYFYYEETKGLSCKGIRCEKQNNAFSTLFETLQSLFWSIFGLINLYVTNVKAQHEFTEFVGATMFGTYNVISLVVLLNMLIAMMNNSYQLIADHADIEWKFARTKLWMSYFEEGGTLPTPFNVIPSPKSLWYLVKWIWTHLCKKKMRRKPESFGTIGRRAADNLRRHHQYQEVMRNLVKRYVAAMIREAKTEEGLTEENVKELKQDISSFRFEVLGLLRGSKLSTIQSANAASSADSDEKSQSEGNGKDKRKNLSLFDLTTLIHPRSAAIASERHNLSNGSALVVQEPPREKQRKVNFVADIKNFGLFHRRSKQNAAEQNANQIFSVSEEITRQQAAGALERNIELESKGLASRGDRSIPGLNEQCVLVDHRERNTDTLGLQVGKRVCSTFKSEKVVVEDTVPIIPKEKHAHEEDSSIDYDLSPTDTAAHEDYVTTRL

[9] = target: Bcl-2-like protein 10 (Homo sapiens, UniProt Q9HD36); assay: displacers of TR3 peptide from Bcl-B, primary screen, selectivity assay for Bfl-1 inhibitor project, biochemical, fluorescence polarization, FITC-TR3 peptide (AID 748);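 note: fluorescence polarization from a fluorescein-labelled TR3 peptide binding purified Bcl-B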
Chain of Bcl-2-like protein 10 (Q9HD36 whole entry): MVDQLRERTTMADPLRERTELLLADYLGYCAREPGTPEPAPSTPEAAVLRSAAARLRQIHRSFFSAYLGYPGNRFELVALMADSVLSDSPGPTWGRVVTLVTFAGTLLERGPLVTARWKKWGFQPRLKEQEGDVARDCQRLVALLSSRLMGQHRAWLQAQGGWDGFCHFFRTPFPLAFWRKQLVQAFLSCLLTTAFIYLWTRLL

[10] = system: HEK293; assay: cells; settings: Homo sapiens
[11] = system: HEK293; assay: cells; type: functional, cell-based; settings: Homo sapiens
[12] = target: T4, Nucleotide-binding oligomerization domain-containing protein 2 (Homo sapiens, UniProt Q9HC29); assay: NOD2 signaling inhibitors, cell-based, luminescence, uHTS, HEK293 (AID 1566); type: functional
T4 sequence (Q9HC29 whole entry, the tested form may be a part): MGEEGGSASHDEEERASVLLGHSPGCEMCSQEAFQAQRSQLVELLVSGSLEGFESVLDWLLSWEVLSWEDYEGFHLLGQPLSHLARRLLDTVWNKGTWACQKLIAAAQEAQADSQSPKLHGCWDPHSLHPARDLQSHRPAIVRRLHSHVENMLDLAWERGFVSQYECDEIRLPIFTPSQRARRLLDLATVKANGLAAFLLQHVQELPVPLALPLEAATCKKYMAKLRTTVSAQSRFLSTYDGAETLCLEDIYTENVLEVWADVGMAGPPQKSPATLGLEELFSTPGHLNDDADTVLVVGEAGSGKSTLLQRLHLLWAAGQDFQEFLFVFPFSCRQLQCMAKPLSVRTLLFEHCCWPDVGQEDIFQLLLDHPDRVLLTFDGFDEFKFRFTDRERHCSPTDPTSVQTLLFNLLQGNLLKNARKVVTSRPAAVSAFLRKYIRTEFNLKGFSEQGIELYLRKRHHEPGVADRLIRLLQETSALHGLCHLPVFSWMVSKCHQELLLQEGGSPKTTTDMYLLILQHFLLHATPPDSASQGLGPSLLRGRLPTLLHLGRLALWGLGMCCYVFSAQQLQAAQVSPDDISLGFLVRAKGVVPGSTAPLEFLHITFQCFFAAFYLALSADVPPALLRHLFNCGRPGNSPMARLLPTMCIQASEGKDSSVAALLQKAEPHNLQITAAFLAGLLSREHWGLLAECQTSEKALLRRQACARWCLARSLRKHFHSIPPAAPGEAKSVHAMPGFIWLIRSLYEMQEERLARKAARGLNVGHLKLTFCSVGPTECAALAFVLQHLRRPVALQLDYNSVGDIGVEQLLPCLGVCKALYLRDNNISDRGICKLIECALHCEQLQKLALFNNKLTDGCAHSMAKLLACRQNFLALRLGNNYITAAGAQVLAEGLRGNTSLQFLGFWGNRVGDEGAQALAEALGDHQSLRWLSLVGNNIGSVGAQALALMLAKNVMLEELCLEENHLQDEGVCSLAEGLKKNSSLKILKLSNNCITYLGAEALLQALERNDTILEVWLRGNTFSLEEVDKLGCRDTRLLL

[13] = system: HEK293; assay: cells; type: functional, cell-based; settings: Homo sapiens; remark: listed apart in the source
[14] = target: T5, Small ubiquitin-related modifier 1 (Homo sapiens, UniProt P63165); assay: inhibitors of SUMO1 peptide binding, dose response, biochemical, fluorescence polarization, uHTS hits (AID 624382); type: functional; settings: read-out: IC50_Mean
T5 sequence (P63165 whole entry): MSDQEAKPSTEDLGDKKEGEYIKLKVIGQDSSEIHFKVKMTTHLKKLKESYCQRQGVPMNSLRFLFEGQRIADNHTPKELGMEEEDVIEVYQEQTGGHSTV

[15] = system: HEK293; assay: NOD1 signaling inhibitors, primary screen, cell-based, luminescence, uHTS (AID 1578); type: functional; settings: Homo sapiens
[16] = system: HEK293; assay: NOD2 signaling inhibitors in MDP-stimulated cells, cell-based, uHTS, luminescence (AID 2001); type: functional; settings: Homo sapiens
[17] = system: HEK293; assay: cells; type: functional, cell-based; settings: Homo sapiens; remark: listed apart in the source
[18] = target: T5, Small ubiquitin-related modifier 1; assay: inhibitors of SUMO1 partner interactions, dose response, biochemical, FRET (AID 624383); type: functional; settings: read-out: IC50_Mean
[19] = target: Tumor necrosis factor (Homo sapiens, UniProt P01375); assay: TNFa-triggered NF-kB activation inhibitors, SAR follow-up, cell-based, revised (AID 2337); type: functional
Chain of Tumor necrosis factor (P01375 whole entry, the tested form may be a part): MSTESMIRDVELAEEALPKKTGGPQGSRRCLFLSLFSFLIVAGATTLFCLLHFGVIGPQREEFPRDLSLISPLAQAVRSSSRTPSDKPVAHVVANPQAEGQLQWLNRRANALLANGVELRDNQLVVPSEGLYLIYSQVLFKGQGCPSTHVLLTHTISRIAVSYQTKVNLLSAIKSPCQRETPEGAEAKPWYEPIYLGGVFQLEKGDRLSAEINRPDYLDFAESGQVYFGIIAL

[20] = target: T4, Nucleotide-binding oligomerization domain-containing protein 2; assay: PubChem AID 2334; type: functional
[21] = target: T6, Nucleotide-binding oligomerization domain-containing protein 1 (Homo sapiens, UniProt Q9Y239); assay: NOD1 signaling inhibitors, SAR follow-up, revised (AID 2333); type: functional
T6 sequence (Q9Y239 whole entry): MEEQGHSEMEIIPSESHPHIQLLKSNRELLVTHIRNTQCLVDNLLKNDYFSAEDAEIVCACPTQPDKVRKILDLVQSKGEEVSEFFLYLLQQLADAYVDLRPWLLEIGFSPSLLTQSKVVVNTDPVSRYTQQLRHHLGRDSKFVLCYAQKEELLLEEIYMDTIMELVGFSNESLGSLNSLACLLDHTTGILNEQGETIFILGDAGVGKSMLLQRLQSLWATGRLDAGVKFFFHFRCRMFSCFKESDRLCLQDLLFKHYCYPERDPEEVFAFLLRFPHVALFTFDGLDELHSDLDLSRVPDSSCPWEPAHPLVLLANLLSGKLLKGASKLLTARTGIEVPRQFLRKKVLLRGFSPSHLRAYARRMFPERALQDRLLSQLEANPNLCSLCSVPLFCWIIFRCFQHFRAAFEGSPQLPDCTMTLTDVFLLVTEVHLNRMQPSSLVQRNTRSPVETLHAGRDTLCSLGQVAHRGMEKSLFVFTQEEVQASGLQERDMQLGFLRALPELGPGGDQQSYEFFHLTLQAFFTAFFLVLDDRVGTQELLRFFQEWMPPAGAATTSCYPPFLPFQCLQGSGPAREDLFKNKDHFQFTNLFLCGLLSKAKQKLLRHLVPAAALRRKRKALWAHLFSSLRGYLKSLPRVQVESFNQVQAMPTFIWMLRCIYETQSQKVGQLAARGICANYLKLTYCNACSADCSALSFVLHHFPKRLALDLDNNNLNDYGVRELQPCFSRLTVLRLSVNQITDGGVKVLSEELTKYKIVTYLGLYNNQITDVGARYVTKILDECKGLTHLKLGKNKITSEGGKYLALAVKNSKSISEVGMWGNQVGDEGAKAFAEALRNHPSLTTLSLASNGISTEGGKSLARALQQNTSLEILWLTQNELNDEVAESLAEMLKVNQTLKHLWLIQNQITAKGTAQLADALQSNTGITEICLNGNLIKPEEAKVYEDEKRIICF

[22] = target: Peroxisome proliferator-activated receptor gamma/Nuclear receptor coactivator 3 (Homo sapiens, UniProt P37231); assay: TR-FRET dose response biochemical High Throughput Screening assay for agonists of the steroid receptor coactivator 3 (SRC-3) recruitment by the peroxisome proliferator-activated receptor gamma (PPAR gamma): non-selective agonists. [Related pubchem assays: 1301 (Confirmation screen.), 1048 (Primary screen.)]; type: functional
Chain of Peroxisome proliferator-activated receptor gamma/Nuclear receptor coactivator 3 (P37231 whole entry): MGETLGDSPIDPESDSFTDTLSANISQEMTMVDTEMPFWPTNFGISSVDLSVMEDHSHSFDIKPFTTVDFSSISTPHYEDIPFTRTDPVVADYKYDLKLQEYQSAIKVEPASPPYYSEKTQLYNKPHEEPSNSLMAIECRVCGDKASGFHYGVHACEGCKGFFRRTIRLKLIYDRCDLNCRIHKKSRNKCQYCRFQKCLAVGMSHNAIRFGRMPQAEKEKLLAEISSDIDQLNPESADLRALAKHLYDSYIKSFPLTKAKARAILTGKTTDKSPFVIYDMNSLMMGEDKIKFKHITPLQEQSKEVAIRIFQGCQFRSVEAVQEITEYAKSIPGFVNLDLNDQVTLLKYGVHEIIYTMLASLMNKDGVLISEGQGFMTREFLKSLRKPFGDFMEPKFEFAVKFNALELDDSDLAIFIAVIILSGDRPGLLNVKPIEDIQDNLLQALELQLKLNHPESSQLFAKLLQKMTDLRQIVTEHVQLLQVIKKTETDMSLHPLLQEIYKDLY
Chain of Peroxisome proliferator-activated receptor gamma/Nuclear receptor coactivator 3 (Q9Y6Q9 whole entry, further chain): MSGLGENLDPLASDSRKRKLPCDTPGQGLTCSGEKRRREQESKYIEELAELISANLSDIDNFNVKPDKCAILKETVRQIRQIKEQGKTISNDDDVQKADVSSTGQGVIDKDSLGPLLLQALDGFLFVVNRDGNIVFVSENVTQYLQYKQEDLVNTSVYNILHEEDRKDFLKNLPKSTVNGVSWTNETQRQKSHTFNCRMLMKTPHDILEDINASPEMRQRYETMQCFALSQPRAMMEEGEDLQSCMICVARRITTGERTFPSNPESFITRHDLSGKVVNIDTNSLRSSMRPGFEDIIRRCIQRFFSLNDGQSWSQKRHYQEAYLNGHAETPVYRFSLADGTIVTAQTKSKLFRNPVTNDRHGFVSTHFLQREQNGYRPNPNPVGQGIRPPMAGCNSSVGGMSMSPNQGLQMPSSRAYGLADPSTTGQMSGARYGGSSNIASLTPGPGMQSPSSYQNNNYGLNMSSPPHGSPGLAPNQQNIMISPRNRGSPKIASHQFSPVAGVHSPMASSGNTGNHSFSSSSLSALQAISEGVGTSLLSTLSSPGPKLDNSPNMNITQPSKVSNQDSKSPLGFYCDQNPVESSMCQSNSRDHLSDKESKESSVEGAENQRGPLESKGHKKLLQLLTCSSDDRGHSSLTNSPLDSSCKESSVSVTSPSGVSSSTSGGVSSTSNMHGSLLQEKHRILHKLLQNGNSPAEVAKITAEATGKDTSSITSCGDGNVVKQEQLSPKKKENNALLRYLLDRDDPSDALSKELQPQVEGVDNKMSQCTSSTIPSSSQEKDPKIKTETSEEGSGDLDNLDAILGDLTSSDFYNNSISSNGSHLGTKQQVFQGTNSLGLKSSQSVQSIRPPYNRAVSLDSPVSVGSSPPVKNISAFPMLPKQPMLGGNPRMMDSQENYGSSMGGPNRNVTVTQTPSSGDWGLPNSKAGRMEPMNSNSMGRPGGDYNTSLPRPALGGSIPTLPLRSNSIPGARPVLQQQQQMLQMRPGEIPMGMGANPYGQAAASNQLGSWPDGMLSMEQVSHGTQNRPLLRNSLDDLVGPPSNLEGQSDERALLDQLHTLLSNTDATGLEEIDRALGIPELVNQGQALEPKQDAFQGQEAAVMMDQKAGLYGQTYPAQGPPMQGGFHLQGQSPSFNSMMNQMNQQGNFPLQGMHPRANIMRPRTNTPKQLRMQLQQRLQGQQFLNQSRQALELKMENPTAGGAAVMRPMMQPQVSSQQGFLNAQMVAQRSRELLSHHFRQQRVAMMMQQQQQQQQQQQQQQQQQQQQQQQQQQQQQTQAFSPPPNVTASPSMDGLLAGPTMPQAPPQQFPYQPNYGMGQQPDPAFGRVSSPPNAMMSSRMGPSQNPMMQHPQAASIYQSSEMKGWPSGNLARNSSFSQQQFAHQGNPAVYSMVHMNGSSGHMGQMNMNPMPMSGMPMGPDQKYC

[23] = target: Peroxisome proliferator-activated receptor gamma/Nuclear receptor coactivator 2 (Homo sapiens, UniProt P37231); assay: TR-FRET dose response biochemical High Throughput Screening assay for agonists of the steroid receptor coactivator 2 (SRC-2) recruitment by the peroxisome proliferator-activated receptor gamma (PPAR gamma): non-selective agonists. [Related pubchem assays: 1297, 1032 ]; type: functional
[24] = cytotoxicity in HEK-293T cells, dose response, cytotoxicity control for BCR NF-kB inhibitor project, luminescence, B-cell screen hits (AID 489021); type: functional, cell-based;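 note: HEK-293T cells carrying an NF-kB luciferase reporter; cells exposed to compound for about 14 hours before viability readout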
[25] = system: HEK293; assay: inhibitors of LMP1-driven NF-kB reporter, dose response, cell-based, HEK293, luciferase, cherry-pick (AID 588343); type: functional; settings: Homo sapiens
[26] = target: Peroxisome proliferator-activated receptor gamma/Nuclear receptor coactivator 1 (Homo sapiens, UniProt P37231); assay: TR-FRET dose response biochemical High Throughput Screening assay for agonists of the steroid receptor coactivator 1 (SRC-1) recruitment by the peroxisome proliferator-activated receptor gamma (PPAR gamma): non-selective agonists. [Related pubchem assays (depositor defined):AID1300, AID1808, AID504735, AID631]; type: protein assay
[27] = target: X-box-binding protein 1 (Homo sapiens, UniProt P17861); type: functional, Cricetulus griseus;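 note: confirmatory dose-response counter-screen serving a CHOP assay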
Chain of X-box-binding protein 1 (P17861 whole entry): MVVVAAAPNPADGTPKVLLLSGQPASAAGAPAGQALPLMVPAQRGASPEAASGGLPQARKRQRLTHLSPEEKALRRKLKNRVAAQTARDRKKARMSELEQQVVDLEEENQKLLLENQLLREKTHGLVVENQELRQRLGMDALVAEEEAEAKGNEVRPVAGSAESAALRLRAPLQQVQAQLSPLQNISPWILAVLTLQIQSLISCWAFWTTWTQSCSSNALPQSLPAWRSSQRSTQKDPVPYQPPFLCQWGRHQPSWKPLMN

## CN(C)c1ccc(-n2cccc2/C=C/[N+](=O)[O-])cc1
[1]
  IC50: > 64.6 µM (inactive)
[2]
  EC50: 9.06 µM (active)
[3]
  AC50: 2.93 µM (active)
[4]
  AC50: 10.2 µM (active)
[5]
  IC50: 12.1 µM (inactive)
[6]
  AC50: 4.36 µM (active)
[7]
  IC50: 43.2 µM (active)

## Cc1ccc(S(=O)(=O)Nc2cccc(C(=O)NCC(c3ccco3)N3CCCCC3)c2)cc1F (configuration not stated)
[8]
  EC50: 0.267 µM (active)

## O=C1c2ccccc2C(=O)N1CC#CCN1CCN(C2CCCCC2)CC1
[9]
  IC50: > 100 µM (inactive)

## Cc1oc2c(C)c3oc(=O)c(CCC(=O)O)c(C)c3cc2c1-c1ccccc1
[10]
  IC50: > 20 µM (inactive)
[11]
  IC50: > 20 µM (inactive)
[12]
  EC50: 3.67 µM (active)
[13]
  IC50: > 20 µM (inactive)
[14]
  IC50: > 66.6 µM (inactive)
[15]
  EC50: 7.66 µM (active)
[16]
  IC50: 14.8 µM (inactive)
[17]
  IC50: > 20 µM (inactive)
[18]
  IC50: 13.4 µM (active)
[19]
  IC50: 5.03 µM (active)
[20]
  IC50: 5.03 µM (active)
[21]
  IC50: 5.43 µM (active)

## O=C(Cc1cccc2ccccc12)Nc1ccc(-c2cc3ccccc3oc2=O)cc1
[22]
  EC50: > 79.4 µM (not active)
[23]
  EC50: 22 µM (not active)
[24]
  IC50: > 80 µM (inactive)
[25]
  AC50: 0.587 µM (active)
[26]
  EC50: 22.7 µM (inactive)

## CCOc1ccc(-c2[nH]nc(C)c2Oc2ccc(OC)cc2)c(O)c1
[27]
  Absolute IC50 (XBP1): 10 µM
